The text below walks through data of PubChem BioAssay AID2060501 (Molecular Pharmacology Branch, DTP, NCI, 2025).

In general, IC50 refers to the concentration at which inhibition is half-maximal. The term viability, T/C denotes the result in the treated group divided by that in the control group, in per cent.
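Also: spheroids exposed to compounds for 7 days before readout.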
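For viability, T/C in this document: percent of vehicle DMSO control viability with 100% = untreated-like growth.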

The first assay has as its system 282377-053-R-J1-PDC complex spheroids, viability. Briefly: Anticancer human tumor 282377-053-R-J1-PDC patient-derived colon adenocarcinoma cell line growth inhibition [GQUAD]. The conditions noted are these: curve of first compound; second compound 0.0316 µM. From the text:
DNA G-quadruplex Stabilizer Agents in Combinations in Complex Spheroids
A high-throughput screen of multi-cell type tumor spheroids was designed to identify active combinations of DNA G-quadruplex stabilizer agents and targeted small molecules. Complex spheroids include a stromal component modeled by human endothelial cells (HUVEC) and fibroblasts modeled by human mesenchymal stem cells (MSCs). The concentration ranges selected for each drug and investigational agent were based upon clinically achievable concentrations if the clinical Cmax of the agent was known.
Compounds. The drugs and investigational agents: pidnarulex (CX-5461; NSC782164), APTO-253 (NSC789042), BRACO-19 (NSC847499), peposertib (NSC802822), ceralasertib (NSC780249), elimusertib (NSC800525), camonsertib (NSC841442), AZD-1390 (NSC803789), olaparib (NSC753686), talazoparib (NSC767125), ART-558 (NSC835418), sotorasib (NSC818433), MRTX-1133 (NSC836407), SN-38 (NSC673596), topotecan (NSC609699), etoposide (NSC141540), doxorubicin (NSC123127), gemcitabine (NSC613327), 5-fluorouracil (NSC19893), paclitaxel (NSC125973), vemurafenib (NSC761431), panobinostat (NSC761190), R-306465 (JNJ-16241199; NSC773264), adavosertib (NSC754352), TP-3654 (NSC805149), carboplatin (NSC241240), KSQ-4279 (NSC840948), and staurosporine (NSC755774) were obtained from the National Cancer Institute (NCI) Developmental Therapeutics Program Chemical Repository (34). The FDA-approved anticancer drug set is available from the NCI Developmental Therapeutics Program. […] The stock solutions were prepared in dimethyl sulfoxide (DMSO, Sigma-Aldrich, St. Louis, MO, cat. D2650) at 800-fold the tested concentration and stored at -70 degrees C prior to their use. All drugs and investigational agents were tested over a range starting from a high concentration at or near the clinical Cmax and decreasing in half-log increments. If the clinical Cmax for an agent had not been determined, the highest concentration tested was 10 microM.
2.3 Cell Culture. All cells were maintained in an incubator at 37 degrees C and 5% CO2 with 95% humidity. The PDC lines were cultured according to standard operating procedures established by the NCI PDMR. All PDCs were thawed and cultured in Matrigel-coated flasks prepared with a working solution of 1X Ham's F-12 nutrient mix, without supplementation (Invitrogen, cat. 11765054), 100 U/mL penicillin-streptomycin (Invitrogen, cat. 15140122), and 2.5% Matrigel (Corning Inc., cat. 354248) for the first three passages. The 857933-349-R-J2-PDC line was cultured in 6C/Colon 1B media, which includes advanced DMEM/F-12 (Thermo Fisher Scientific, cat. 12634028), 10 mM HEPES (Thermo Fisher Scientific, cat. 15630080), 1X GlutaMAX supplement (Thermo Fisher Scientific, cat. 35050061), 0.1 mg/mL primocin (InvivoGen, cat. ant-pm-2), 10% defined fetal bovine serum, heat inactivated (HyClone Laboratories Inc., cat. SH30070.03HI), 50% L-WRN conditioned media (ATCC, cat. CRL-3276), 1.25 mM N-Acetyl-L-cysteine (Sigma-Aldrich, cat. A9165), 10 mM nicotinamide (Sigma-Aldrich, cat. N0636), 1X B-27 supplement (Thermo Fisher Scientific, cat. 17504044), 1X N-2 supplement (Thermo Fisher Scientific, cat. 17502048), 10 microM Y-27632 dihydrochloride (Tocris Bioscience, cat. 1254), and 50 ng/mL human EGF recombinant protein (Thermo Fisher Scientific, cat. PHG0311). The 485176-168-R4-J1-PDC line was cultured in Panc media, which includes all 6C/Colon 1B media components plus 100 ng/mL human FGF-10 (Thermo Fisher Scientific, cat. 100-26), 500 nM SB-431542 (Selleckchem, cat. S1067), and gastrin (Tocris, cat. 3006).
[…]
As to `CCCS(=O)(=O)Nc1ccc(F)c(C(=O)c2c[nH]c3ncc(-c4ccc(Cl)cc4)cc23)c1F` + CN(C)c1ccc(Nc2c3ccc(NC(=O)CCN4CCCC4)cc3nc3cc(NC(=O)CCN4CCCC4)ccc23)cc1, the IC50 was determined as 4.49 µM.

For `CC(C)n1c(=O)n(C)c2cnc3cc(F)c(-c4ccc(OCCCN5CCCCC5)nc4)cc3c21` + Cc1[nH]c2ccc(F)cc2c1-c1nc2c3cccnc3c3ncccc3c2[nH]1, the half-inhibitory concentration (IC50) was above 10 µM.

Consider `O=C(c1cc(Cc2n[nH]c(=O)c3ccccc23)ccc1F)N1CCN(C(=O)C2CC2)CC1` + Cc1[nH]c2ccc(F)cc2c1-c1nc2c3cccnc3c3ncccc3c2[nH]1, for which the half-maximal inhibitory concentration (IC50) is above 10 µM.

Staying with this assay, now noted: curve of first compound; second compound 0.1 µM.
`CCCS(=O)(=O)Nc1ccc(F)c(C(=O)c2c[nH]c3ncc(-c4ccc(Cl)cc4)cc23)c1F` + CN(C)c1ccc(Nc2c3ccc(NC(=O)CCN4CCCC4)cc3nc3cc(NC(=O)CCN4CCCC4)ccc23)cc1: the IC50 amounted to 3.49 µM.

Turning to `CC(C)n1c(=O)n(C)c2cnc3cc(F)c(-c4ccc(OCCCN5CCCCC5)nc4)cc3c21` + Cc1[nH]c2ccc(F)cc2c1-c1nc2c3cccnc3c3ncccc3c2[nH]1, the IC50 is above 10 µM.

For the compound `O=C(c1cc(Cc2n[nH]c(=O)c3ccccc23)ccc1F)N1CCN(C(=O)C2CC2)CC1` + Cc1[nH]c2ccc(F)cc2c1-c1nc2c3cccnc3c3ncccc3c2[nH]1, the concentration for half-maximal inhibition (IC50) was above 10 µM.

The assay is the same for the next values; noted with them: curve of first compound; second compound 0.316 µM.
`CCCS(=O)(=O)Nc1ccc(F)c(C(=O)c2c[nH]c3ncc(-c4ccc(Cl)cc4)cc23)c1F` + CN(C)c1ccc(Nc2c3ccc(NC(=O)CCN4CCCC4)cc3nc3cc(NC(=O)CCN4CCCC4)ccc23)cc1: the IC50 was determined as 2.96 µM.

With `CC(C)n1c(=O)n(C)c2cnc3cc(F)c(-c4ccc(OCCCN5CCCCC5)nc4)cc3c21` + Cc1[nH]c2ccc(F)cc2c1-c1nc2c3cccnc3c3ncccc3c2[nH]1, the IC50 was above 10 µM.

`O=C(c1cc(Cc2n[nH]c(=O)c3ccccc23)ccc1F)N1CCN(C(=O)C2CC2)CC1` + Cc1[nH]c2ccc(F)cc2c1-c1nc2c3cccnc3c3ncccc3c2[nH]1: the half-maximal inhibitory concentration (IC50) is above 10 µM.

Staying with this assay, now noted: curve of first compound; second compound 1 µM.
Turning to `CCCS(=O)(=O)Nc1ccc(F)c(C(=O)c2c[nH]c3ncc(-c4ccc(Cl)cc4)cc23)c1F` + CN(C)c1ccc(Nc2c3ccc(NC(=O)CCN4CCCC4)cc3nc3cc(NC(=O)CCN4CCCC4)ccc23)cc1, the IC50 was determined as 3.87 µM.

As for `CC(C)n1c(=O)n(C)c2cnc3cc(F)c(-c4ccc(OCCCN5CCCCC5)nc4)cc3c21` + Cc1[nH]c2ccc(F)cc2c1-c1nc2c3cccnc3c3ncccc3c2[nH]1, the half-inhibitory concentration (IC50) was above 10 µM.

Consider `O=C(c1cc(Cc2n[nH]c(=O)c3ccccc23)ccc1F)N1CCN(C(=O)C2CC2)CC1` + Cc1[nH]c2ccc(F)cc2c1-c1nc2c3cccnc3c3ncccc3c2[nH]1, for which the 50% inhibitory concentration (IC50) was above 10 µM.

Still in this assay, the particulars now being: curve of first compound; second compound 3.16 µM.
Consider `CCCS(=O)(=O)Nc1ccc(F)c(C(=O)c2c[nH]c3ncc(-c4ccc(Cl)cc4)cc23)c1F` + CN(C)c1ccc(Nc2c3ccc(NC(=O)CCN4CCCC4)cc3nc3cc(NC(=O)CCN4CCCC4)ccc23)cc1, for which the IC50 turned out to be 3.32 µM.

As for `CC(C)n1c(=O)n(C)c2cnc3cc(F)c(-c4ccc(OCCCN5CCCCC5)nc4)cc3c21` + Cc1[nH]c2ccc(F)cc2c1-c1nc2c3cccnc3c3ncccc3c2[nH]1, the IC50 was 6.16 µM.

Regarding `O=C(c1cc(Cc2n[nH]c(=O)c3ccccc23)ccc1F)N1CCN(C(=O)C2CC2)CC1` + Cc1[nH]c2ccc(F)cc2c1-c1nc2c3cccnc3c3ncccc3c2[nH]1, the 50% inhibitory concentration (IC50) was above 10 µM.

The same assay, now with this note: curve of first compound; second compound 10 µM.
Regarding `CCCS(=O)(=O)Nc1ccc(F)c(C(=O)c2c[nH]c3ncc(-c4ccc(Cl)cc4)cc23)c1F` + CN(C)c1ccc(Nc2c3ccc(NC(=O)CCN4CCCC4)cc3nc3cc(NC(=O)CCN4CCCC4)ccc23)cc1, the IC50 is 3.74 µM.

For `CC(C)n1c(=O)n(C)c2cnc3cc(F)c(-c4ccc(OCCCN5CCCCC5)nc4)cc3c21` + Cc1[nH]c2ccc(F)cc2c1-c1nc2c3cccnc3c3ncccc3c2[nH]1, the 50% inhibitory concentration (IC50) worked out at 0.0435 µM.

Turning to `O=C(c1cc(Cc2n[nH]c(=O)c3ccccc23)ccc1F)N1CCN(C(=O)C2CC2)CC1` + Cc1[nH]c2ccc(F)cc2c1-c1nc2c3cccnc3c3ncccc3c2[nH]1, the half-maximal inhibitory concentration (IC50) is 1.55 µM.

Staying with this assay, now noted: second compound 0.0316 µM; first compound 0.0316 µM; stronger effect = lower value.
`CCCS(=O)(=O)Nc1ccc(F)c(C(=O)c2c[nH]c3ncc(-c4ccc(Cl)cc4)cc23)c1F` + CN(C)c1ccc(Nc2c3ccc(NC(=O)CCN4CCCC4)cc3nc3cc(NC(=O)CCN4CCCC4)ccc23)cc1: the viability, T/C is 81%.

Turning to `CC(C)n1c(=O)n(C)c2cnc3cc(F)c(-c4ccc(OCCCN5CCCCC5)nc4)cc3c21` + Cc1[nH]c2ccc(F)cc2c1-c1nc2c3cccnc3c3ncccc3c2[nH]1, the viability, T/C is 123%.

Take `O=C(c1cc(Cc2n[nH]c(=O)c3ccccc23)ccc1F)N1CCN(C(=O)C2CC2)CC1` + Cc1[nH]c2ccc(F)cc2c1-c1nc2c3cccnc3c3ncccc3c2[nH]1: the viability, T/C is 134%.

The assay is the same for the next values; noted with them: second compound 0.0316 µM; first compound 0.1 µM; stronger effect = lower value.
Take `CCCS(=O)(=O)Nc1ccc(F)c(C(=O)c2c[nH]c3ncc(-c4ccc(Cl)cc4)cc23)c1F` + CN(C)c1ccc(Nc2c3ccc(NC(=O)CCN4CCCC4)cc3nc3cc(NC(=O)CCN4CCCC4)ccc23)cc1: the viability, T/C is 66%.

`CC(C)n1c(=O)n(C)c2cnc3cc(F)c(-c4ccc(OCCCN5CCCCC5)nc4)cc3c21` + Cc1[nH]c2ccc(F)cc2c1-c1nc2c3cccnc3c3ncccc3c2[nH]1: the viability, T/C is 91.5%.

For `O=C(c1cc(Cc2n[nH]c(=O)c3ccccc23)ccc1F)N1CCN(C(=O)C2CC2)CC1` + Cc1[nH]c2ccc(F)cc2c1-c1nc2c3cccnc3c3ncccc3c2[nH]1, the viability, T/C is 107%.

The same assay, now with this note: second compound 0.0316 µM; first compound 0.316 µM; stronger effect = lower value.
For the compound `CCCS(=O)(=O)Nc1ccc(F)c(C(=O)c2c[nH]c3ncc(-c4ccc(Cl)cc4)cc23)c1F` + CN(C)c1ccc(Nc2c3ccc(NC(=O)CCN4CCCC4)cc3nc3cc(NC(=O)CCN4CCCC4)ccc23)cc1, the viability, T/C is 58%.

`CC(C)n1c(=O)n(C)c2cnc3cc(F)c(-c4ccc(OCCCN5CCCCC5)nc4)cc3c21` + Cc1[nH]c2ccc(F)cc2c1-c1nc2c3cccnc3c3ncccc3c2[nH]1: the viability, T/C is 123%.

`O=C(c1cc(Cc2n[nH]c(=O)c3ccccc23)ccc1F)N1CCN(C(=O)C2CC2)CC1` + Cc1[nH]c2ccc(F)cc2c1-c1nc2c3cccnc3c3ncccc3c2[nH]1: the viability, T/C is 102%.

Staying with this assay, now noted: second compound 0.0316 µM; first compound 1 µM; stronger effect = lower value.
As to `CCCS(=O)(=O)Nc1ccc(F)c(C(=O)c2c[nH]c3ncc(-c4ccc(Cl)cc4)cc23)c1F` + CN(C)c1ccc(Nc2c3ccc(NC(=O)CCN4CCCC4)cc3nc3cc(NC(=O)CCN4CCCC4)ccc23)cc1, the viability, T/C was 69.9%.

As to `CC(C)n1c(=O)n(C)c2cnc3cc(F)c(-c4ccc(OCCCN5CCCCC5)nc4)cc3c21` + Cc1[nH]c2ccc(F)cc2c1-c1nc2c3cccnc3c3ncccc3c2[nH]1, the viability, T/C was 104%.

`O=C(c1cc(Cc2n[nH]c(=O)c3ccccc23)ccc1F)N1CCN(C(=O)C2CC2)CC1` + Cc1[nH]c2ccc(F)cc2c1-c1nc2c3cccnc3c3ncccc3c2[nH]1: the viability, T/C is 122%.

The assay is the same for the next values; noted with them: second compound 0.0316 µM; first compound 3.16 µM; stronger effect = lower value.
Consider `CCCS(=O)(=O)Nc1ccc(F)c(C(=O)c2c[nH]c3ncc(-c4ccc(Cl)cc4)cc23)c1F` + CN(C)c1ccc(Nc2c3ccc(NC(=O)CCN4CCCC4)cc3nc3cc(NC(=O)CCN4CCCC4)ccc23)cc1, for which the viability, T/C was 64.5%.
